Assay results: PMC8764529, “Diversification by CofC and Control by CofD Govern Biosynthesis and Evolution of Coenzyme F420 and Its Derivative 3PG-F420” (mBio, 2022)

Experiments:
CofC (Archaeon GBE54128) = molecular target: T1, CofC (Archaeon GBE54128) (archaeon BMS3Bbin15, UniProt A0A2H6JTR5); experiment: combined CofC/D assay, LC-MS; type: biochemical; conditions: competitive mixture of 3-PG, 2-PL, PEP ([…] each), […] GTP, […] MgCl2, FO, Mjan-CofD, pH […]
T1 construct: N-terminal His6, E. coli; synthetic gene
T1 sequence (A0A2H6JTR5 1-207): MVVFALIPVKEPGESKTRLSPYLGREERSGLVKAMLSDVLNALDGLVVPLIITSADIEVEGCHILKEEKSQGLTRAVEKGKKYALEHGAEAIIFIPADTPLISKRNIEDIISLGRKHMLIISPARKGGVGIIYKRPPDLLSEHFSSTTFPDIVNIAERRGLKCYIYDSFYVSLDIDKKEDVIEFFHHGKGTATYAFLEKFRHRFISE

CofC (Ca. H. archaeon) = molecular target: T2, CofC (Ca. H. archaeon) (Candidatus Hydrothermarchaeota archaeon, UniProt A0A497JEJ7); experiment: combined CofC/D assay, LC-MS; type: biochemical; conditions: competitive mixture of 3-PG, 2-PL, PEP ([…] each), […] GTP, […] MgCl2, FO, Mjan-CofD, pH […]
T2 construct: N-terminal His6, E. coli; synthetic gene; full organism name only in supplement
T2 sequence (A0A497JEJ7 1-207): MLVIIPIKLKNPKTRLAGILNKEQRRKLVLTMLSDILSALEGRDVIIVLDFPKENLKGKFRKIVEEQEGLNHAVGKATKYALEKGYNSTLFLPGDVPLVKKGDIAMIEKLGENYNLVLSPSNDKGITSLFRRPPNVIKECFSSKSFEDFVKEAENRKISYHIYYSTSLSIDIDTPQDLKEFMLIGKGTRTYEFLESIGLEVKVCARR

[1] = molecular target: T3, CofC (Thermomicrobium roseum) (Thermomicrobium roseum, UniProt B9L4T8); experiment: combined CofC/D assay, LC-MS; type: biochemical; conditions: competitive mixture of 3-PG, 2-PL, PEP (0.5 mM each), 2 mM GTP, 2 mM MgCl2, FO, Mjan-CofD, pH 7.4
T3 construct: gene fbiD; N-terminal His6, E. coli
T3 sequence (B9L4T8 1-200): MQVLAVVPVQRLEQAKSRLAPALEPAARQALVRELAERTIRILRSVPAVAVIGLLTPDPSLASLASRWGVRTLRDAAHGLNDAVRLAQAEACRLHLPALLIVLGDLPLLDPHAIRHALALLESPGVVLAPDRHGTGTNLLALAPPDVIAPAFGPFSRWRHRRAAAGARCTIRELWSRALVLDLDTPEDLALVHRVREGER

Mmaz-CofC = molecular target: T4, Mmaz-CofC (Methanosarcina mazei, UniProt Q8PU52); experiment: combined CofC/D assay, LC-MS; type: biochemical; conditions: competitive mixture of 3-PG, 2-PL, PEP (0.5 mM each), 2 mM GTP, 2 mM MgCl2, FO, Mjan-CofD, pH 7.4
T4 construct: N-terminal His6, E. coli
T4 sequence (Q8PU52 1-208): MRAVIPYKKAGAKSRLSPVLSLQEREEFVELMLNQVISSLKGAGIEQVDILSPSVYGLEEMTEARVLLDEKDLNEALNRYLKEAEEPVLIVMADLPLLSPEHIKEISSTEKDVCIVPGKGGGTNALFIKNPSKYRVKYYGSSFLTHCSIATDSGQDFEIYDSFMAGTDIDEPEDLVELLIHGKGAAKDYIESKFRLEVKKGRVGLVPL

[2] = molecular target: T5, CofC (Paracoccus denitrificans) (Paracoccus denitrificans, UniProt A1B131); experiment: combined CofC/D assay, LC-MS; type: biochemical; conditions: competitive mixture of 3-PG, 2-PL, PEP (0.5 mM each), 2 mM GTP, 2 mM MgCl2, FO, Mjan-CofD, pH 7.4
T5 construct: gene Pden_1117; N-terminal His6, E. coli
T5 sequence (A1B131 1-216): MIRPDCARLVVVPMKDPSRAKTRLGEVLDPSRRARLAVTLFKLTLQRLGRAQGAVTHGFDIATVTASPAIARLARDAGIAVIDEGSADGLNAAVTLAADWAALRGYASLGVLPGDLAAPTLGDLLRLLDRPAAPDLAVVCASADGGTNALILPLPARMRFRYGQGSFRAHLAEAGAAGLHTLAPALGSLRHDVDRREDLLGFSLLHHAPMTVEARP

Msmeg-FbiD = molecular target: T6, Msmeg-FbiD (Mycolicibacterium smegmatis, UniProt A0QUZ4); experiment: combined CofC/D assay, LC-MS; type: biochemical; conditions: competitive mixture of 3-PG, 2-PL, PEP (0.5 mM each), 2 mM GTP, 2 mM MgCl2, FO, Mjan-CofD, pH 7.4
T6 construct: N-terminal His6, full length, E. coli (plasmid pMH10)

[3] = molecular target: T7, CofC (Oligotropha carboxidovorans) (Afipia carboxidovorans, UniProt B6JBS5); experiment: combined CofC/D assay, LC-MS; type: biochemical; conditions: competitive mixture of 3-PG, 2-PL, PEP (0.5 mM each), 2 mM GTP, 2 mM MgCl2, FO, Mjan-CofD, pH 7.4
T7 construct: gene fbiD; N-terminal His6, E. coli
T7 sequence (B6JBS5 1-237): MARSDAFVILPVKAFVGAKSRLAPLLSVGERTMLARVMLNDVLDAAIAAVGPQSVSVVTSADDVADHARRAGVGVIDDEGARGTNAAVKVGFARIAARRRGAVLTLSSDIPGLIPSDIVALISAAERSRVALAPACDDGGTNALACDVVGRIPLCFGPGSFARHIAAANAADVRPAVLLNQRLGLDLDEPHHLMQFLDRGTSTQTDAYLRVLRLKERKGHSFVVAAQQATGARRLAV

CofC (Ca. E. factor) = molecular target: T8, CofC (Ca. E. factor) (Candidatus Entotheonella factor, UniProt W4LIL2); experiment: combined CofC/D assay, LC-MS; type: biochemical; conditions: competitive mixture of 3-PG, 2-PL, PEP (0.5 mM each), 2 mM GTP, 2 mM MgCl2, FO, Mjan-CofD, pH 7.4
T8 construct: gene ETSY1_21445; N-terminal His6, E. coli

Mrhiz-CofC = molecular target: T9, Mrhiz-CofC (Mycetohabitans rhizoxinica, UniProt E5ASS2); experiment: combined CofC/D assay, LC-MS; type: biochemical; conditions: competitive mixture of 3-PG, 2-PL, PEP (0.5 mM each), 2 mM GTP, 2 mM MgCl2, FO, cognate CofD, pH 7.4
T9 construct: N-terminal His6, full length, E. coli (plasmid pFS03)

Mjan-CofD = molecular target: T10, Mjan-CofD (Methanocaldococcus jannaschii, UniProt Q58653); experiment: combined CofC/D assay, LC-MS; type: biochemical; conditions: coupled to CofC homologs forming LPPG, EPPG or GPPG; 2 mM GTP, 2 mM MgCl2, pH 7.4
T10 construct: N-terminal His6, E. coli

CofC (nano-DSF) = molecular target: T11, CofC (nano-DSF); experiment: nano-DSF; type: binding; conditions: GPPG co-purified with the enzyme may be present
T11 construct: N-terminal His6, E. coli; Results place the test beside MycB3-CofC, Discussion names M. rhizoxinica

T10 sequence (Q58653 whole entry): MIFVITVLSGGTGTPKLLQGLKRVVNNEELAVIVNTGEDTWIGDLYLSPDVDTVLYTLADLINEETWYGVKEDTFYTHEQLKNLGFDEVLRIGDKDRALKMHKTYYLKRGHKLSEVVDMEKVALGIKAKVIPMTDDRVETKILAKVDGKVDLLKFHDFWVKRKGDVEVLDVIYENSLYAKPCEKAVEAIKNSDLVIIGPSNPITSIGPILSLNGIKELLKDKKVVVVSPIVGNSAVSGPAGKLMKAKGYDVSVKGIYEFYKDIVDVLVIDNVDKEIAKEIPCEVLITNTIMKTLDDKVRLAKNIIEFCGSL
T8 sequence (W4LIL2 entry or part of it): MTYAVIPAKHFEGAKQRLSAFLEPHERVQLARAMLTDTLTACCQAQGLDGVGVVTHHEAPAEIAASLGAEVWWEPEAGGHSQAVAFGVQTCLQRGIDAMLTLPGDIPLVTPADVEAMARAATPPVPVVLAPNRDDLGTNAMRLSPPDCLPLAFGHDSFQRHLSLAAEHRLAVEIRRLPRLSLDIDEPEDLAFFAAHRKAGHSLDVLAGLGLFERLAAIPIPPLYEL
T6 sequence (A0QUZ4 whole entry): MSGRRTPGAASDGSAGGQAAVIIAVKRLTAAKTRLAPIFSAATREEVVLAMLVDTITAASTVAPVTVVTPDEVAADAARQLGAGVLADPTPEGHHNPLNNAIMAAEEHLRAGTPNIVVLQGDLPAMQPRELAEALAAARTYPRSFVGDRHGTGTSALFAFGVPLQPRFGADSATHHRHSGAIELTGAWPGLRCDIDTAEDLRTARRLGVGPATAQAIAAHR
T9 sequence (E5ASS2 6-221): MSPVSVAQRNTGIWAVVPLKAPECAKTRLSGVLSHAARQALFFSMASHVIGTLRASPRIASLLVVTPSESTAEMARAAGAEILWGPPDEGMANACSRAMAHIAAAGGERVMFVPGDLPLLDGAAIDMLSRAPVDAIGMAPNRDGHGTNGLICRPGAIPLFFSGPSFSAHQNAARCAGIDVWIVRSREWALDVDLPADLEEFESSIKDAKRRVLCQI

Compound: C[C@H](OP(=O)(O)O)C(=O)O [2-PL]
- combined CofC/D assay, LC-MS (CofC (Archaeon GBE54128)): 2-PL was the best substrate of all three enzymes
- combined CofC/D assay, LC-MS (CofC (Ca. H. archaeon)): 2-PL was the best substrate of all three enzymes
- combined CofC/D assay, LC-MS [1]: For all CofC-related enzymes analyzed, 2-PL was used most efficiently
- combined CofC/D assay, LC-MS (Mmaz-CofC): For all CofC-related enzymes analyzed, 2-PL was used most efficiently
- combined CofC/D assay, LC-MS [2]: For all CofC-related enzymes analyzed, 2-PL was used most efficiently
- combined CofC/D assay, LC-MS (Msmeg-FbiD): the M. smegmatis FbiD tested in this study preferred 2-PL as substrate
- combined CofC/D assay, LC-MS [3]: For all CofC-related enzymes analyzed, 2-PL was used most efficiently
- combined CofC/D assay, LC-MS (CofC (Ca. E. factor)): For all CofC-related enzymes analyzed, 2-PL was used most efficiently

Compound: O=C(O)[C@H](O)COP(=O)(O)O [3-PG]
- combined CofC/D assay, LC-MS (CofC (Archaeon GBE54128)): all of those enzymes accepted 3-PG as substrates
- combined CofC/D assay, LC-MS (CofC (Ca. H. archaeon)): all of those enzymes accepted 3-PG as substrates
- combined CofC/D assay, LC-MS (Mrhiz-CofC): combined with their cognate CofD, the apparent substrate specificity shifted almost completely toward 3-PG

Compound: O=c1nc2n(C[C@H](O)[C@H](O)[C@H](O)CO)c3cc(O)ccc3cc-2c(=O)[nH]1 [FO, 7,8-didemethyl-8-hydroxy-5-deazariboflavin]
- combined CofC/D assay, LC-MS (Mjan-CofD): Distinct derivatives of F420-0 were produced via biochemical reaction of purified CofC and CofD

Compound: Nc1nc2c(ncn2[C@@H]2O[C@H](COP(=O)(O)OP(=O)(O)OP(=O)(O)O)[C@@H](O)[C@H]2O)c(=O)[nH]1 [GTP]
- Kd (CofC (nano-DSF)): < 20 µM
